Where two headings read alike, the source gives them in different places.
Columns and labels:
[1] = biological target: T1, human EP4 receptor (Homo sapiens, UniProt P35408); experiment: cAMP assay (AlphaScreen) on human EP4 membrane of transfected cells, antagonism of PGE2; format: biochemical; conditions: HEK293 hEP4 cell membrane stimulated with PGE2 3 nM; read-out: functional IC50
T1 construct: expressed in transfected cells; membrane fraction used
Excerpt: (§1) Stable Expression of Human EP4 Receptors in the Human Embryonic Kidney (HEK293) Cell Line
(§2) The cDNA clone of human EP4 receptor (NM_000958.2) was obtained from Invitrogen™: Ultimate™ ORF Clone Collection—Clone ID IOH46525. The coding sequence was subcloned in expression vector pcDNA™6.2/V5-DEST by Gateway technology (Invitrogen™).
(§3) Human embryonic kidney cells (HEK-293) were stably transfected with expression vector for human EP4 receptor in according to the method described in FuGENE®6 Transfection Reagent's manual (Roche Applied Science®).
(§4) Preparation of Membrane Fraction:
(§5) The EP4 transfected cells were grown in Dulbecco's modified Eagle's medium containing 10% fetal bovine serum and 10 μg/ml Blasticidin S HCl (selection medium) at 37° C. in a humidified atmosphere of 5% CO2 in air.
(§6) For the membrane preparation, cells in flask were harvested by hypotonical/mechanical lysis with chilled (4° C.) TE buffer (5 mM TRIS, 5 mM etylenediamine tetra-acetic acid (EDTA), pH 7.4).
(§7) Cells were detached and lysed with 10 ml of hypotonic lysis buffer and by scraping. The cell lysate was vortexed for 30 sec and centrifuged at 40000×g at 4° C. for 22 min.
b) cAMP Assay on Human EP4 Membrane of Transfected Cells.
The assay is based on the competition between endogenous cAMP and exogenously added biotinylated cAMP. The capture of cAMP is achieved by using a specific antibody conjugated to […] beads.
Cell membranes prepared as described above, were resuspended in 1 ml stimulation buffer (HBSS 1×+BSA 0.1%+IBMX 0.5 mM+HEPES 5 mM+MgCl2 10 mM+GTP 1 nM+GDP 10 μM+ATP 100 μM−pH 7.4). Cell membranes were dispensed into white 384-well microplates at final concentration of 1 μg/well and used for the determination of cAMP with the alphascreen cAMP functional assay (EnVision—PerkinElmer). Cell membrane/anti-cAMP Acceptor beads mix (5 μl) and a mixture of analysed compounds (dissolved in 100% DMSO to a final maximal concentration of 0.01% DMSO)/PGE2 (5 μl) were incubated at room temperature (22-23° C.) for 30 min in the dark. The Biotinylated-cAMP and donor beads (15 μl) were dispensed into each well to start the competition reaction. After 1 h incubation RT (22-23° C.) in the dark the plate was read using EnVision platform to determine the cAMP level (excitation: 680 nm; emission: 520,620 nm).
cAMP standard curve (concentration range from 1×10-6 to 1×10-11 M in. log intervals) with a negative control (no cAMP) a positive control:forskolin 10 μM
Antagonism studies were performed stimulating HEK293 cell membrane with PGE2 3 nM. The AlphaScreen signal is plotted as a function of log concentration of cAMP and functional IC50 is determined. IC50 value is calculated by linear regression.
Some compounds were tested according to method of example 83b.

[2] = Pharmacokinetics in male Han Wistar rats, intravenous and oral; format: in vivo; conditions: rat, 1.0 mg/kg; for AUC(0-inf) / AUC(0-t) / clearance / Vd / half-life / Cmax / Tmax / bioavailability: male, Han Wistar, plasma; for clearance: read-out: CLp* (converted); for Vd: read-out: Vss*; for half-life: read-out: t½* (converted); for bioavailability: po, 1 mg/kg, read-out: F %
Experimental: Determination of PK of the Invention Compounds
The pharmacokinetics of compounds E10, E16, E34, E38, E51, were studied in male Han Wistar rats. The rats were treated intravenously and orally (n=3 for each dose route) with a compounds formulated as solutions. The rats were fitted with a jugular cannula for serial sampling. A full profile was acquired for each rat. Plasma extracts were quantitatively analyzed using a specific and sensitive LC-MS/MS bioanalytical method. Inter-individual variations between the three rats in each group were limited (CV for pharmacokinetic parameters was below 50%).

[3] = biological target: T1, human EP4 receptor; experiment: [3H]-Prostaglandin E2 membrane binding assay (human EP4/HEK293 transfectant membranes); conditions: [3H]-PGE2 1 nM, hEP4/HEK293 membranes; Ki by Cheng-Prusoff; read-out: Binding pKi (converted)
Excerpt: as §1, §2, §3, §4, §5, §6, §7
a) Membrane Binding Assay[3H]-Prostaglandin E2
The membrane pellet was resuspended in the same buffer (5 mM TRIS, 5 mM ethylenediamine tetra-acetic acid (EDTA), pH 7.4), and protein concentration was determined by Bradford method (Bio-Bad® assay).
This membrane preparation was stored at −80° C. freezer until use for binding assay.
([^3H]-PGE2) membranes binding assays toward hEP4 receptors (human EP4/HEK293 transfectant, see above) and hEP2 receptors (human EP2/HEK293 transfectant, purchased from PerkinElmer Inc) were performed in 10 mM MES-KOH buffer pH6, containing 10 mM MgCl2 and 1 mM CaCl2 for EP4 binding assay or 50 mM Tris-Cl, BSA 0.5% for EP2 binding assay (according to supplier indication).
Ten microgram of protein from membrane fractions were incubated in a total volume of 0.1 ml (EP4) or 0.2 ml (EP2) with 1 nM (EP4) or 3 nM (EP2) [^3H]-PGE2 (PerkinElmer Inc, 171 Ci/mmol). In both assays to determine the total binding or non specific binding, 1% DMSO or 1 μM prostaglandin E2 (EP4) or 100 μM (EP2) were added to reaction mixtures, respectively. Incubation was conducted in a polypropylene 96 multiwell for 90 min (EP4) or 60 min (EP2) at room temperature prior to separation of the bound and free radioligand by vacuum manifold rapid filtration on glass fiber filters (Unifilter GFB96, PerkinElmer Inc) pre-soaked in 0.3% polyethyleneimine. Filters were washed with ice cold buffer pH 7.4 (50 mM HEPES, NaCl 500 mM, BSA 0.1% for EP4 binding assay or 50 mM Tris-Cl for EP2 binding assays) and the residual [^3H]-PGE2 binding determined by solid scintillation counter (TopCount, PerkinElmer Inc).
The affinity (Ki) of each compound was calculated according to the Cheng-Prousoff equation: Ki=IC50/(1+([C]/Kd)). Results were expressed as pKi (−log 10 Ki (M)
Compounds of example 1 to 82 were tested according to method of example 83a in a final concentration range from 1 nM to 1 μM.

T1 sequence (P35408 whole entry): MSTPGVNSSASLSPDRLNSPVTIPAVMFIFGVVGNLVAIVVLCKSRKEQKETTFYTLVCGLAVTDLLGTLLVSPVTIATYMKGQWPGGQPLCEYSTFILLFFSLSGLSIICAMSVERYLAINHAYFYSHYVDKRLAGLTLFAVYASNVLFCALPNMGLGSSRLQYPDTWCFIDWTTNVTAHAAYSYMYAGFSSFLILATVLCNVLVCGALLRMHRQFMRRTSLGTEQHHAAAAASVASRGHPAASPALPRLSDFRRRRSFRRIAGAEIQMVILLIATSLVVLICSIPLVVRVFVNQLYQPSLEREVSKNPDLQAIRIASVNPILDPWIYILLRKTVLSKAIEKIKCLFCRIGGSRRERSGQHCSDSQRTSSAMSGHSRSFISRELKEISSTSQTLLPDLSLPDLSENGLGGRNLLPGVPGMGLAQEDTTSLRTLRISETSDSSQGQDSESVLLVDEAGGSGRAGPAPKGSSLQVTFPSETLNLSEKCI

With `Cc1cc(F)ccc1NC1CN(c2ncc(C(F)(F)F)cc2C(=O)NC2(c3ccc(C(=O)O)cc3)CC2)C1` [E 51, 4-(1-(2-(3-((4-fluoro-2-methylphenyl)amino)azetidin-1-yl)-5-(trifluoromethyl)nicotinamido)cyclopropyl)benzoic acid] the IC50 [1] was 28 nM, the AUC(0-inf) ([2]; IV) was 389 ng·h/mL and the AUC(0-t) ([2]; IV) was 385 ng·h/mL. It also gave a clearance ([2]; IV) of 11.2 mL/min, a Vd ([2]; IV) of 0.447 L and a half-life ([2]; IV) of 67.2 min. It also gave an AUC(0-inf) ([2]; PO) of 231 ng·h/mL, an AUC(0-t) ([2]; PO) of 225 ng·h/mL and a Cmax ([2]; PO) of 151 ng/mL. For the same compound, the Tmax ([2]; PO) was 15 min, the half-life ([2]; PO) was 68.4 min and the bioavailability ([2]; PO) was 58%. For the same compound, the Tlast ([2]; IV) was 6 h, the Tlast ([2]; PO) was 6 h and the Ki [3] was 6.31 nM.

`Cc1cc(F)ccc1NC1CN(c2ncc(Cl)cc2C(=O)NC2(c3ccc(C(=O)O)cc3)CC2)C1` [E 34, 4-(1-(5-chloro-2-(3-((4-fluoro-2-methylphenyl)amino)azetidin-1-yl)nicotinamido)cyclopropyl)benzoic acid] gave an IC50 [1] of 43 nM, an AUC(0-inf) ([2]; IV) of 302 ng·h/mL and an AUC(0-t) ([2]; IV) of 300 ng·h/mL. The clearance ([2]; IV) was 14.4 mL/min, the Vd ([2]; IV) was 0.227 L and the half-life ([2]; IV) was 20.4 min. It also gave an AUC(0-inf) ([2]; PO) of 128 ng·h/mL, an AUC(0-t) ([2]; PO) of 125 ng·h/mL and a Cmax ([2]; PO) of 98.1 ng/mL. The Tmax ([2]; PO) was 15 min, the half-life ([2]; PO) was 69.6 min and the bioavailability ([2]; PO) was 42%. The Tlast ([2]; IV) was 2 h, the Tlast ([2]; PO) was 6 h and the Ki [3] was 3.16 nM.

Work on `O=C(O)c1ccc(C2(NC(=O)c3cc(Cl)cnc3N3CC(Nc4ccc(F)cc4F)C3)CC2)cc1` [E 35, 4-(1-(5-chloro-2-(3-((2,4-difluorophenyl)amino)azetidin-1-yl)nicotinamido)cyclopropyl)benzoic acid] yielded an IC50 [1] of 59 nM and a Ki [3] of 6.31 nM.

For `O=C(O)c1ccc(C2(NC(=O)c3cc(Cl)cnc3N3CCCC3c3ccccc3)CC2)cc1` (single isomer, unassigned) [E 1, 4-(1-(5-chloro-2-(2-phenylpyrrolidin-1-yl)nicotinamido)cyclopropyl)benzoic acid], the IC50 [1] was 235 nM and the Ki [3] was 398 nM.

In the case of `O=C(O)c1ccc(CNC(=O)c2cc(Cl)cnc2N2CC(Oc3cccc(F)c3)C2)cc1` [E 22, 4-((5-chloro-2-(3-(3-fluorophenoxy)azetidin-1-yl)nicotinamido)methyl)benzoic acid], the IC50 [1] is reported as 119 nM and the Ki [3] is reported as 31.6 nM.

Compound `O=C(O)c1ccc(C2(NC(=O)c3cc(Cl)cnc3N3CCC(Oc4ccc(F)cc4)C3)CC2)cc1` (single isomer, unassigned) [E 66, 4-(1-(5-chloro-2-(3-(4-fluorophenoxy)pyrrolidin-1-yl)nicotinamido)cyclopropyl)benzoic acid] has an IC50 [1] of 43 nM and a Ki [3] of 39.8 nM.

In the case of `Cc1cc(F)ccc1NC1CN(c2ncc(F)cc2C(=O)NC2(c3ccc(C(=O)O)cc3)CC2)C1` [E 56, 4-(1-(5-fluoro-2-(3-((4-fluoro-2-methylphenyl)amino)azetidin-1-yl)nicotinamido)cyclopropyl)benzoic acid], the IC50 [1] is reported as 46 nM and the Ki [3] is reported as 10 nM.

In the case of `O=C(O)c1ccc(C2(NC(=O)c3cc(C(F)(F)F)cnc3N3CC(Nc4ccc(F)cc4)C3)CC2)cc1` [E 50, 4-(1-(2-(3-((4-fluorophenyl)amino)azetidin-1-yl)-5-(trifluoromethyl)nicotinamido)cyclopropyl)benzoic acid], the IC50 [1] is reported as 23 nM and the Ki [3] is reported as 12.6 nM.

In the case of `O=C(O)c1ccc(C2(NC(=O)c3cc(C(F)(F)F)cnc3N3CC(Oc4ccc(Cl)cc4)C3)CC2)cc1` [E 40, 4-(1-(2-(3-(4-chlorophenoxy)azetidin-1-yl)-5-(trifluoromethyl)nicotinamido)cyclopropyl)benzoic acid], the IC50 [1] is reported as 10 nM and the Ki [3] is reported as 5.01 nM.

`O=C(O)c1ccc(C2(NC(=O)c3cc(Cl)cnc3N3CC(Oc4ccc(F)c(F)c4)C3)CC2)cc1` [E 20, 4-(1-(5-chloro-2-(3-(3,4-difluorophenoxy)azetidin-1-yl)nicotinamido)cyclopropyl)benzoic acid] gave an IC50 [1] of 70 nM and a Ki [3] of 10 nM.

From patent US8828987B2, “Pyridine amide derivatives as EP4 receptor antagonists” (Rottapharm Biotech S.R.L., priority 2010, dated 2014)
